Source: patent US20090069315A1, “Use of Pyrazolo(1,5A)Pyrimidin-7-YL Amine Derivatives in the Treatment of Neurological Disorders” (priority 2006, published 2009)

Tests used:
[1] = test system: embryonic cortical neurons; test: In vitro assay for neurite outgrowth/axon regeneration: E16 cortical neurons on astrocyte monolayers; format: cell-based; settings: 100 nM; immunofluorescence images, FIG. 2A
Method: This assay is used to assess neurite outgrowth inhibition of embryonic cortical neurons by Eph receptors expressed on astrocytes or neurite outgrowth inhibition of post-natal cortical neurons by ephrin ligand present in myelin. E16 (embryonic day 16) cortical neurons are plated onto confluent astrocyte monolayers plated in 4-well chamber slides. Pharmacological inhibitors, are added to the medium and the length of longest neurite from each neuron is measured under each condition (FIG. 2A depicts an example of neurons plated in the presence of Compound 1 and visualized with the neuronal marker, Tuj-1) and compared to average neurite length on astrocytes in the absence of any pharmacological agents. FIG. 2B depicts the quantitation of neurite outgrowth effects observed with Compound 6 and Compound 7 (all tested at 100 nM concentration) in cortical cultures plated on astrocytes.

[2] = biological target: T1, EphA4 (Mus musculus, UniProt Q03137); test: Proof of mechanism: EphA4 phosphorylation in mouse brain after dosing; format: in vivo; parameters: from tissue; host or cells: brain of male NMRI mice; settings: male NMRI mice, 10 mg/kg; for crossing of the blood brain barrier: inferred from block of brain EphA4 phosphorylation; for EphA4 phosphorylation in vivo in mouse brain: i.v., sacrificed 25 minutes or 1 hour after dosing, FIG. 4
Method: Animals were given an i.v dose of relevant compound and sacrificed 25 minutes or 1 hour after dosing (0.25 h or 1 h), the brains removed and subjected to EphA4 immunoprecipitation followed by a phospho-tyrosine Western blot. Four animals were used as controls and three-animals each were used per time point for each drug. From top to bottom, the compounds tested were Compound 1, Compound 7, and Compound 6.
Male NMRI mice were injected with relevant compounds at a dose of 10 mg/kg body weight and were sacrificed either 25 minutes or 1 hour following the dosing (0.25 h or 1 h shown in FIG. 4). The brains were removed and one half of each brain was weighed and homogenized in appropriate volume of lysis buffer for 30 seconds (10 seconds pulse and 10 seconds off—3 times). The homogenate was spun at 12,000 g for 30 minutes. Protein amounts were estimated for supernatants (using BCA) and equal amounts of protein for each condition were subjected to EphA4 immunoprecipitation followed by a phospho-tyrosine western blot. Four control animals were used and three experimental animals per time point were used for each of the compounds tested (Compounds 1, 2, 6, and 7)

[3] = biological target: T1, EphA4; test: EphA4 autophosphorylation assay in primary astrocyte cultures (EphA4 immunoprecipitation, phospho-tyrosine Western); format: cell-based; parameters: Primary astrocyte cultures are established from neonatal mouse cortex; endogenous in cells; host or cells: primary astrocytes from neonatal mouse cortex; settings: cells pre-treated with 100 nM; FIG. 1A
Method: FIG. 1A, lanes and 2 represent samples from cells treated with either control IgG-Fc or with the ligand ephrinB3-Fc. […] represent samples from cells that have been pre-treated with Compound 1 (100 nM) and are then stimulated with IgG-Fc or ephrinB3-Fc in the combined presence of the inhibitor (Compound I)(lanes 3, 4) or in its absence (lanes 5, 6). FIG. 1B, lanes 1 and 2 show EphA4 phosphorylation in control (untreated) and ephrinB3-Fc stimulated cells following serum starvation. All other lanes represent samples from cells stimulated with ephrinB3-Fc in the presence of varying concentrations (as indicated) of tested Eph inhibitors.
Primary astrocyte cultures are established from neonatal mouse cortex and purified so as to get about 95-98 pure astrocyte cultures. […] Cells are lysed, and the lysates subjected to EphA4 immunoprecipitation and subsequently analysed on Westerns for level of receptor phosphorylation using a phospho-tyrosine antibody.

[4] = test system: astrocytes; test: In vitro assay for astrogliosis: astrocyte scratch wound (cytokine-induced migration); format: cell-based, mouse; settings: relative distance of cell migration compared to control; FIG. 3
Method: The white bar represents the addition of Compound 6. The black bar represents no compounds added.
Assay Astrocytes are prepared from the cerebral cortex of neonatal C57BL/6 mice (P1-P2). Cells are maintained in Dulbecco's modified Eagle's medium with 10% FBS. 4-7 weeks old astrocytes are plated to confluence in 2 well chamber slides coated with poly-D-lysine for the scratch wound assay and serum starved. 48 hrs after serum starvation, the monolayer of astrocytes is scratched with sterile 200 μl tips and washed twice with PBS to get rid of cell debris. Conditioned medium (+/−cytokines) is added to the wounded astrocytes. The microscopic images of the scratch is captured at a magnification of 10× right after scratch and considered as time point 0.24 hrs, 48 hrs or 72 hrs after scratch, the same region of scratch is imaged and fixed with methanol containing, 1 μg/ml of DAPI to monitor migration and proliferation of astrocytes.

T1 sequence (Q03137 20-986): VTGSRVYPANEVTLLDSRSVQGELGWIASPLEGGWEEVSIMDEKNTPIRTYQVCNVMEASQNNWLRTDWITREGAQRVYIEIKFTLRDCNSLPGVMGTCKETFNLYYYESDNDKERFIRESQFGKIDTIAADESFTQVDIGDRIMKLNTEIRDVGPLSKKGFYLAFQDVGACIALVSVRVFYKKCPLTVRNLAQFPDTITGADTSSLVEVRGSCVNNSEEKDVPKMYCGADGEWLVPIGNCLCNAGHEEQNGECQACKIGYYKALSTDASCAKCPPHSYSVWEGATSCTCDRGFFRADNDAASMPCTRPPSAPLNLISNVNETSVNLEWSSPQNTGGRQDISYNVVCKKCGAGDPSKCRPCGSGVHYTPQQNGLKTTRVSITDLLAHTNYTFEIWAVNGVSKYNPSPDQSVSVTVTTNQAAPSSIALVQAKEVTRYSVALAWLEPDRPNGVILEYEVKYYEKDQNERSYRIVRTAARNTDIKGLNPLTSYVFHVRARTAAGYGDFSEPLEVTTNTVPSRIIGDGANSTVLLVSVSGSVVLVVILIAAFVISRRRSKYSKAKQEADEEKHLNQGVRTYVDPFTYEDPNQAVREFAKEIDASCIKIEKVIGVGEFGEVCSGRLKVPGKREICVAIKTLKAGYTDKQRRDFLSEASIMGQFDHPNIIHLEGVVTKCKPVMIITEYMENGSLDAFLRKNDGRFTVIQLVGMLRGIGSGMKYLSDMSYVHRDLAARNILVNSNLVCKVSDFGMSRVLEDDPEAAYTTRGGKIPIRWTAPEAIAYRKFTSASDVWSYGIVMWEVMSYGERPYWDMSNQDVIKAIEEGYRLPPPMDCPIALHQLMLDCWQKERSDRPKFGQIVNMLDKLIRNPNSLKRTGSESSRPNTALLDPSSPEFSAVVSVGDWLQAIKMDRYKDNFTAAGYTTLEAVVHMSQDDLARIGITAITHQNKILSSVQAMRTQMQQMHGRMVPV

Row | SMILES | melting point | further results
1 | COc1ccc(-c2cnn3c(N)c(-c4cccc(Cl)c4)c(C)nc23)cc1OC [Compound 3, 6-(3-Chloro-phenyl)-3-(3,4-dimethoxy-phenyl)-5-methyl-pyrazolo[1,5-a]pyrimidin-7-ylamine] | 223 to 226 °C | 
2 | Cc1nc2c(-c3cccc(N4CCN(C5CCN(C)CC5)CC4)c3)cnn2c(N)c1-c1cccc(Cl)c1 [Compound 5, 6-(3-Chloro-phenyl)-5-methyl-3-{3-[4-(1-methyl-piperidin-4-yl)-piperazin-1-yl]-phenyl}-pyrazolo[1,5-a]pyrimidin-7-ylamine] | 180 to 185 °C | 
3 | COc1ccc(-c2cnn3c(N)c(-c4cccc(Cl)c4)c(CN4CCNCC4)nc23)cc1OC [Compound 6, 6-(3-Chloro-7-phenyl)-3-(3,4-dimethoxy-phenyl)-5-piperazin-1-ylmethyl-pyrazolo[1,5-a]pyrimidin-7-ylamine] |  | crossing of the blood brain barrier [2]: cross the blood brain barrier; EphA4 phosphorylation in vivo in mouse brain [2]: effectively block phosphorylation of EphA4 receptor in vivo; astrocyte migration induced by cytokines (TGF-α, LIF, and IFN) [4]: block astrocyte migration
4 | Cc1nc2c(-c3ccc(OCCN(C)C)cc3)cnn2c(N)c1-c1cccc(Cl)c1 [Compound 7, 6-(3-Chloro-phenyl)-3-[4-(2-dimethylamino-ethoxy)-phenyl]-5-methyl-1-pyrazolo[1,5-a]pyrimidin-7-ylamine] |  | crossing of the blood brain barrier [2]: cross the blood brain barrier; EphA4 phosphorylation in vivo in mouse brain [2]: effectively block phosphorylation of EphA4 receptor in vivo
5 | CN(C)c1ccc(-c2cnn3c(N)c(-c4ccc(OS(=O)(=O)c5ccc(Cl)cc5)cc4)cnc23)cc1 [Example 18, 4-Chloro-benzenesulfonic acid 4-[7-amino-3-(4-dimethylamino-phenyl)-pyrazolo[1,5-a]pyrimidin-6-yl]-phenyl ester] | 186 to 191.88 °C | 
6 | CN1CCN(c2ccc(-c3cnn4c(N)c(-c5ccccc5Cl)cnc34)cc2)CC1 [Example 84, 6-(2-Chloro-phenyl)-3-[4-(4-methyl-piperazin-1-yl)-phenyl]-pyrazolo[1,5-a]-pyrimidin-7-ylamine] | 197 to 200 °C | 
7 | COc1ccc(-c2cnn3c(N)c(-c4cccc(Cl)c4)c(CF)nc23)cc1OC [Example 99, 6-(3-Chloro-phenyl)-3-(3,4-dimethoxy-phenyl)-5-fluoromethyl-pyrazolo[1,5-a]pyrimidin-7-ylamine] | 228 to 230 °C | 
8 | COc1ccc(-c2cnn3c(N)c(-c4ccc(F)c(Cl)c4)c(C)nc23)cc1OC [Example 101, 6-(3-Chloro-4-fluoro-phenyl)-3-(3,4-dimethoxy-phenyl)-5-methyl-pyrazolo[1,5-a]pyrimidin-7-ylamine] | 235 to 238 °C | 
9 | COc1ccc(-c2cnn3c(N)c(-c4ccc(F)c(Cl)c4)c(C)nc23)cc1 [Example 102, 6-(3-Chloro-4-fluoro-phenyl)-3-(4-methoxy-phenyl)-5-methyl-pyrazolo[1,5-a]-pyrimidin-7-ylamine] | 224 to 227 °C | 
10 | COc1ccc(-c2cnn3c(N)c(-c4ccc(F)cc4)c(C)nc23)cc1 [Example 103, 6-(4-Fluoro-phenyl)-3-(4-methoxy-phenyl)-5-methyl-pyrazolo[1,5-a]pyrimidin-7-ylamine] | 243 to 244 °C | 
11 | Cc1nc2c(-c3cccc(N4CCN(CCO)CC4)c3)cnn2c(N)c1-c1ccc(F)c(F)c1 [Example 108, 2-(4-{3-[7-Amino-6-(3,4-difluoro-phenyl)-5-methyl-pyrazolo[1,5-a]pyrimidin-3-yl]-phenyl}-piperazin-1-yl)-ethanol] | 172 to 174 °C | 

The next lines start with results.

Row | melting point | SMILES | further results
12 | 163 to 168 °C | CCN(CC)C1CCN(c2cccc(-c3cnn4c(N)c(-c5cccc(Cl)c5)c(C)nc34)c2)CC1 [Compound 1, 6-(3-Chloro-phenyl)-3-[3-(4-diethylamino-piperidin-1-yl)-phenyl]-5-methyl-pyrazolo[1,5-a]pyrimidin-7-ylamine] | overcoming neurite outgrowth inhibition [1]: able to overcome neurite outgrowth inhibition; crossing of the blood brain barrier [2]: cross the blood brain barrier; EphA4 phosphorylation in vivo in mouse brain [2]: effectively block phosphorylation of EphA4 receptor in vivo; inhibition of EphA4 auto-phosphorylation (phospho-tyrosine Western blot) [3]: inhibition of EphA4 auto-phosphorylation
13 | 104 to 107 °C | Cc1nc2c(-c3cccc(N4CCN(CCO)CC4)c3)cnn2c(N)c1-c1ccc(F)c(Cl)c1 [Compound 4, 2-(4-{3-[7-Amino-6-(3-chloro-4-fluoro-phenyl)-5-methyl-pyrazolo[1,5-a]pyrimidin-3-yl]-phenyl}-piperazin-1-yl)-ethanol] | 
14 | 143 to 146 °C | CN(C)c1ccc(-c2cnn3c(N)c(-c4ccc(NS(=O)(=O)c5cccc(Cl)c5Cl)cc4)cnc23)cc1 [Example 17, N-{4-[7-Amino-3-(4-dimethylamino-phenyl)-pyrazolo[1,5-a]pyrimidin-6-yl]-phenyl}-2,3-dichloro-benzenesulfonamide] | 
15 | 200 to 203 °C | CN1CCN(c2cccc(-c3cnn4c(N)c(-c5ccccc5Cl)cnc34)c2)CC1 [Example 85, 6-(2-Chloro-phenyl)-3-[3-(4-methyl-piperazin-1-yl)-phenyl]-pyrazolo[1,5-a]-pyrimidin-7-ylamine] | 
16 | 107 to 113 °C | Cc1nc2c(-c3cccc(N4CCN(C)CC4)c3)cnn2c(N)c1-c1cccc(Br)c1 [Example 91, 6-(3-Bromo-phenyl)-5-methyl-3-[3-(4-methyl-piperazin-1-yl)-phenyl]-pyrazol-o[1,5-a]pyrimidin-7-ylamine] | 
17 | 171 to 172 °C | COc1ccc(-c2cnn3c(N)c(-c4cccc(Cl)c4)c(C)nc23)cc1 [Example 95, 6-(3-Chloro-phenyl)-3-(4-methoxy-phenyl)-5-methyl-pyrazolo[1,5-a]pyrimidin-7-ylamine] | 
18 | 72 to 75 °C | CN1CCN(c2cccc(-c3cnn4c(N)c(Cc5ccccc5)cnc34)c2)CC1 [Example 98, 6-Benzyl-3-[3-(4-methyl-piperazin-1-yl)-phenyl]-pyrazolo[1,5-a]pyrimidin-7-ylamine] | 
19 | 208 to 210 °C | CCN(CC)C1CCN(c2cccc(-c3cnn4c(N)c(-c5ccc(F)cc5)c(C)nc34)c2)CC1 [Example 112, 3-[3-(4-Diethylamino-piperidin-1-yl)-phenyl]-6-(4-fluoro-phenyl)-5-methyl-pyrazolo[1,5-a]pyrimidin-7-ylamine] | 
